The text below walks through data of patent US7704995B2 (Exelixis, Inc., priority 2003, dated 2010).

Some results are limits rather than exact numbers.

One assay concerns the target T1, Chk1 (Homo sapiens, UniProt O14757).
T1 construct: purchased Upstate Biotechnology
T1 sequence (O14757 1-476): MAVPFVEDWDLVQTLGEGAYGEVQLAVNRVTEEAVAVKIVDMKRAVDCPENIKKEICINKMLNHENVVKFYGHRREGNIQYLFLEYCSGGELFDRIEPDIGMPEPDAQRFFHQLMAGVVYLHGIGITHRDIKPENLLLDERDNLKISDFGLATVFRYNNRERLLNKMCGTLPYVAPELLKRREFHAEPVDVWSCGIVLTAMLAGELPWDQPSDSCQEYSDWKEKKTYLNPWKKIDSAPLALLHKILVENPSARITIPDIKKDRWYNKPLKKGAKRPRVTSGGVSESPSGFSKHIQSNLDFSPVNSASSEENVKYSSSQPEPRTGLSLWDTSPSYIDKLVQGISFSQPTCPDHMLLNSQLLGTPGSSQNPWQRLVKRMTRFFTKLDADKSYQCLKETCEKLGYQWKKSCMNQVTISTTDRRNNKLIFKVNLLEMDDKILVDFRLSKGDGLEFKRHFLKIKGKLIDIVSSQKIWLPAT
The experiment in a line: Chk1 kinase assay: incorporation of γ-33P ATP into immobilized myelin basic protein. The assay is classed as biochemical. Particulars: Table 11, Chk1 only; class symbols A-D; read-out: Chk1 IC50. Put shortly: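 Immobilized-MBP radiometric kinase assay, room temperature for 1 h; ATP 10 μM (Chk1, 10 nM enzyme) or 30 μM (Chk2, 20 nM enzyme) with 33P tracer. Values are IC50s, with Ki derived from them.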
A word on the IC50: it is the point on the concentration scale where inhibition reaches its midpoint. Turning to `CN(C)c1ccc(NC(=O)NCc2cccc(-c3cnc(N)c(C(=O)N[C@H]4CCCNC4)n3)c2)cc1` [Example 966, 3-amino-6-(3-{[({[4-(dimethylamino)phenyl]amino}carbonyl)amino]methyl}phenyl)-N-[(3S)-piperidin-3-yl]pyrazine-2-carboxamide], the IC50 was under 50 nM.

Regarding `CS(=O)(=O)c1ccc(CNC(=O)c2cccc(-c3cnc(N)c(C(=O)N[C@H]4CCCNC4)n3)c2)cc1` [Example 859, 3-amino-6-{3-[({[4-(methylsulfonyl)phenyl]methyl}amino)carbonyl]phenyl}-N-[(3S)-piperidin-3-yl]pyrazine-2-carboxamide], the half-maximal inhibitory concentration (IC50) is under 50 nM. Still for that read-out and setting: the same measure for `CC(C)(C)OC(=O)N1CCC[C@H](NC(=O)c2nc(-c3cccc(CN)c3)cnc2N)C1` [Example 841, 1,1-dimethylethyl (3S)-3-[({3-amino-6-[3-(aminomethyl)phenyl]pyrazin-2-yl}carbonyl)amino]piperidine-1-carboxylate]: 50 to 1000 nM; for `Nc1ncc(-c2cccc(NC(=O)Cc3c(F)c(F)c(F)c(F)c3F)c2)nc1C(=O)N[C@H]1CCCNC1` [Example 887, 3-amino-6-(3-{[(pentafluorophenyl)acetyl]amino}phenyl)-N-[(3S)-piperidin-3-yl]pyrazine-2-carboxamide]: under 50 nM; for `Nc1ncc(-c2cccc(C(=O)NCc3c(F)cccc3Cl)c2)nc1C(=O)N[C@H]1CCCCNC1` [Example 1021, 3-amino-N-[(3S)-azepan-3-yl]-6-[3-({[(2-chloro-6-fluorophenyl)methyl]amino}carbonyl)phenyl]pyrazine-2-carboxamide]: under 50 nM. The same measure, in the same setting: next, `Nc1ncc(-c2cccc(NC(=O)Cc3c(Cl)cccc3Cl)c2)nc1C(=O)N[C@H]1CCCNC1` [Example 886, 3-amino-6-(3-{[(2,6-dichlorophenyl)acetyl]amino}phenyl)-N-[(3S)-piperidin-3-yl]pyrazine-2-carboxamide]: under 50 nM; `Nc1ncc(-c2cccc(C(=O)NCc3ccc(I)cc3)c2)nc1C(=O)N[C@H]1CCCNC1` [Example 880, 3-amino-6-[3-({[(4-iodophenyl)methyl]amino}carbonyl)phenyl]-N-[(3S)-piperidin-3-yl]pyrazine-2-carboxamide]: under 50 nM.

The assay is the same for the next values; noted with them: Table 11; Chk1 only; read-out: Chk1 IC50.
Take `C/C(=N\N(C)c1ccccc1)c1nc(-c2cccc(C(=O)NCc3ccccc3)c2)cnc1N` [Example 604, 3-{5-amino-6-[(1E)-N-methyl-N-phenylethanehydrazonoyl]pyrazin-2-yl}-N-(phenylmethyl)benzamide]: the IC50 lay in the range of 1000 to 10000 nM. As to `Nc1ncc(-c2cccc(C(=O)NCc3ccccc3)c2)nc1/C=N/Nc1ccccn1` [Example 678, 3-{5-amino-6-[(E)-(pyridin-2-ylhydrazono)methyl]pyrazin-2-yl}-N-(phenylmethyl)benzamide], the IC50 was at least 10000 nM. For `CNC(=O)c1nc(-c2cccc(CNC3CCc4ccc(-c5cccs5)cc43)c2)cnc1N` (stereo not shown) [Example 495, 3-amino-N-methyl-6-[3-({[6-(2-thienyl)-2,3-dihydro-1H-inden-1-yl]amino}methyl)phenyl]pyrazine-2-carboxamide], the IC50 fell in the range of 50 to 1000 nM. The same measure, in the same setting: the same measure for `CNC(=O)c1nc(-c2cccc(C(=O)NNc3c(F)c(F)cc(F)c3F)c2)cnc1N` [Example 434, 3-amino-N-methyl-6-(3-{[2-(2,3,5,6-tetrafluorophenyl)hydrazino]carbonyl}phenyl)pyrazine-2-carboxamide]: 50 to 1000 nM; for `Nc1ncc(-c2cccc(CN[C@H]3CCc4ccccc43)c2)nc1C(=O)NCCCCO` [Example 539, 3-amino-6-(3-{[(1S)-2,3-dihydro-1H-inden-1-ylamino]methyl}phenyl)-N-(4-hydroxybutyl)pyrazine-2-carboxamide]: 50 to 1000 nM; for `CC(C)(C)OC(=O)NCCCNC(=O)c1nc(-c2cccc(C(=O)NCc3ccccc3)c2)cnc1N` [Example 612, 1,1-dimethylethyl [3-({[3-amino-6-(3-{[(phenylmethyl)amino]carbonyl}phenyl)pyrazin-2-yl]carbonyl}amino)propyl]carbamate]: at least 10000 nM. Same read-out and setting: the same measure for `CC(C)(C)OC(=O)N1CCC(N2CC[C@H](NC(=O)c3nc(-c4cccc(C(=O)NCc5ccccc5)c4)cnc3N)C2)CC1` [Example 686, 1,1-dimethylethyl 4-[(3S)-3-({[3-amino-6-(3-{[(phenylmethyl)amino]carbonyl}phenyl)pyrazin-2-yl]carbonyl}amino)pyrrolidin-1-yl]piperidine-1-carboxylate]: 1000 to 10000 nM. Take `Nc1ncc(-c2cccc(CO)c2)nc1-c1nc(C2CCNCC2)n[nH]1` [Example 607, {3-[5-amino-6-(3-piperidin-4-yl-1H-1,2,4-triazol-5-yl)pyrazin-2-yl]phenyl}methanol]: the IC50 was 1000 to 10000 nM. Turning to `NC(=O)c1nc(-c2cccc(S(=O)(=O)N[C@H]3CCc4ccccc43)c2)cnc1N` [Example 802, 3-amino-6-(3-{[(1S)-2,3-dihydro-1H-inden-1-ylamino]sulfonyl}phenyl)pyrazine-2-carboxamide], the IC50 was in the range of 1000 to 10000 nM. Still for that read-out and setting: the same measure for `Nc1ncc(-c2cccc(C(=O)NCc3ccccc3)c2)nc1C(=O)NCCNC(=O)c1ccncc1` [Example 658, 3-amino-6-(3-{[(phenylmethyl)amino]carbonyl}phenyl)-N-{2-[(pyridin-4-ylcarbonyl)amino]ethyl}pyrazine-2-carboxamide]: 1000 to 10000 nM; for `Nc1ncc(-c2cccc(CN[C@H]3CCc4ccccc43)c2)nc1-c1nc(C2CCNCC2)n[nH]1` [Example 639, 5-(3-{[(1S)-2,3-dihydro-1H-inden-1-ylamino]methyl}phenyl)-3-(3-piperidin-4-yl-1H-1,2,4-triazol-5-yl)pyrazin-2-amine]: 50 to 1000 nM. For the molecule `Nc1ncc(-c2cccc(C(=O)NCc3ccccc3)c2)nc1CN1CCOCC1` [Example 694, 3-[5-amino-6-(morpholin-4-ylmethyl)pyrazin-2-yl]-N-(phenylmethyl)benzamide], the IC50 was at least 10000 nM. As for `CNC(=O)c1nc(-c2cccc(CNC3CCc4c(F)cc(F)cc43)c2)cnc1N` (stereo not shown) [Example 474, 3-amino-6-(3-{[(4,6-difluoro-2,3-dihydro-1H-inden-1-yl)amino]methyl}phenyl)-N-methylpyrazine-2-carboxamide], the IC50 lay within 50 to 1000 nM.

The assay is the same for the next values; noted with them: read-out: Chk1 IC50.
For the molecule `CNC(=O)c1nc(-c2cccc(N)c2)cnc1N` [Example 51, 3-amino-6-(3-aminophenyl)-N-methylpyrazine-2-carboxamide], the IC50 was 50 to 1000 nM. As for `CNC(=O)c1nc(-c2cccc(C(=O)NCc3c(F)ccc(F)c3Cl)c2)cnc1N` [Example 297, 3-amino-6-[3-({[(2-chloro-3,6-difluorophenyl)methyl]amino}carbonyl)phenyl]-N-methylpyrazine-2-carboxamide], the IC50 was in the range of 50 to 1000 nM. Same read-out and setting: the same measure for `CNC(=O)c1nc(-c2cccc(C(=O)NCCc3ccc(F)cc3)c2)cnc1N` [Example 131, 3-amino-6-[3-({[2-(4-fluorophenyl)ethyl]amino}carbonyl)phenyl]-N-methylpyrazine-2-carboxamide]: 50 to 1000 nM; for `CNC(=O)c1nc(-c2cccc(CNCC(c3ccccc3)c3ccccc3)c2)cnc1N` [Example 393, 3-amino-6-(3-{[(2,2-diphenylethyl)amino]methyl}phenyl)-N-methylpyrazine-2-carboxamide]: 50 to 1000 nM; for `CNC(=O)c1nc(-c2cccc(C(=O)NCc3ccc(Br)cc3F)c2)cnc1N` [Example 260, 3-amino-6-[3-({[(4-bromo-2-fluorophenyl)methyl]amino}carbonyl)phenyl]-N-methylpyrazine-2-carboxamide]: 50 to 1000 nM.

Regarding `CNC(=O)c1nc(-c2cccc(C(=O)NCc3ccc(OC)cc3)c2)cnc1N` [Example 95, 3-amino-N-methyl-6-{3-[({[4-(methyloxy)phenyl]methyl}amino)carbonyl]phenyl}pyrazine-2-carboxamide], the IC50 was 50 to 1000 nM. For the molecule `CNC(=O)c1nc(-c2cccc(C(=O)NCc3ccccc3-c3ccccc3)c2)cnc1N` [Example 180, 3-amino-6-(3-{[(biphenyl-2-ylmethyl)amino]carbonyl}phenyl)-N-methylpyrazine-2-carboxamide], the IC50 is under 50 nM. Take `CNC(=O)c1nc(-c2ccc(C(=O)OCc3ccccc3)cc2)cnc1N` [Example 149, phenylmethyl 4-{5-amino-6-[(methylamino)carbonyl]pyrazin-2-yl}benzoate]: the IC50 is at least 10000 nM. In the case of `CNC(=O)c1nc(-c2cccc(C(=O)NCc3cccc(F)c3)c2)cnc1N` [Example 110, 3-amino-6-[3-({[(3-fluorophenyl)methyl]amino}carbonyl)phenyl]-N-methylpyrazine-2-carboxamide], the IC50 is 50 to 1000 nM. Take `CNC(=O)c1nc(-c2cccc(C(=O)NCc3cccc(OCCN4CCOCC4)c3)c2)cnc1N` [Example 342, 3-amino-N-methyl-6-(3-{[({3-[(2-morpholin-4-ylethyl)oxy]phenyl}methyl)amino]carbonyl}phenyl)pyrazine-2-carboxamide]: the IC50 fell in the range of 50 to 1000 nM. As to `CNC(=O)c1nc(-c2cccc(S(=O)(=O)NCc3ccccc3)c2)cnc1N` [Example 265, 3-amino-N-methyl-6-(3-{[(phenylmethyl)amino]sulfonyl}phenyl)pyrazine-2-carboxamide], the IC50 is 1000 to 10000 nM.
